Values after ≈ are worked out from the molar mass of the structure shown. Values joined by “and” are separate entries in the source; they are usually repeats but may differ in a detail not shown here. Equal entries are not always repeated. Where two headings read alike, the source gives them in different places.
Experiments:
[1] = test system: K. pneumoniae (ATCC BAA 2146); assay: Recovery of antibiotic activity against K. pneumoniae by hydraphiles; format: cell-based, Klebsiella pneumoniae
Procedure: (§1) However, the bacterial strains used herein are multidrug resistant and the effect of hydraphiles on the inhibition of resistance mechanism (efflux pumps) was not known. The hydraphiles and the controls were tested next to see whether they could recover the activity of antibiotics against efflux pump expressing Gram-positive and Gram-negative bacteria. The MIC of antibiotics were determined in the presence of ½ [MIC] or ¼ [MIC] of each hydraphile or the controls used.

[2] = test system: S. aureus 1199B; assay: MIC, S. aureus 1199B; format: cell-based, Staphylococcus aureus
Excerpt: (§2) K. pneumoniae (ATCC BAA 2146; another Gram-negative bacterium) that expresses multiple classes of efflux pumps and NDM-1 gene was also used. This K. pneumoniae is a clinically relevant strain that was isolated from a patient. Gram-positive S. aureus 1199B was used that overexpresses the NorA efflux pump. Since ethidium bromide and norfloxacin are the substrates of efflux pumps, S. aureus 1199B was used to evaluate the activity of efflux pumps in the presence of the hydraphiles and other membrane disruptors.
(§3) The minimal inhibitory concentrations (MIC) of all the compounds against three bacterial strains were first determined using the microtiter technique as described above. […] Antimicrobial property of hydraphiles is attributed to the disruption of ion homeostasis in bacteria.

[3] = test system: K. pneumoniae (ATCC BAA 2146); assay: MIC, K. pneumoniae; format: cell-based, Klebsiella pneumoniae; settings: for MIC: Klebsiella pneumoniae, BAA2146, read-out: Minimal Inhibitory Concentrations (MIC) K. pneumoniae
Excerpt: as §2, §3

[4] = test system: E. coli; assay: Minimum inhibitory concentration (MIC), E. coli; format: cell-based, Escherichia coli; settings: compound alone
Excerpt: (§4) Among the organisms studied are several strains of the bacterium E. coli.
(§5) Minimal Inhibitory Concentration (MIC) Procedure. […] Streak the E. coli (DH5α or K-12 MG1655) strain on L.B agar plates. […] Prepare initial concentration of all the compounds required. • 5. […] Vortex each test tube for 2-3 seconds. • 9. […] Vortex each test tube for 2-3 seconds. • 11.

[5] = test system: B. subtilis; assay: Minimum inhibitory concentration (MIC), B. subtilis; format: cell-based, Bacillus subtilis; settings: compound alone
Procedure: Among the organisms studied are several strains of the bacterium E. coli. […] Experiments were conducted to determine the MIC values for the synthetic amphiphiles known as lariat ethers according to the procedures described in Antimicrobial M07-A9: Methods for Dilution Antimicrobial Susceptibility Tests for Bacteria that Grow Aerobically; Clinical and Laboratory Standards Institute, 2012; Vol. 32, 67 pp. MIC values so determined for several lariat ethers and for several antibiotics are shown in Table 1.

[6] = test system: S. cerevisiae; assay: Minimum inhibitory concentration (MIC), S. cerevisiae; format: cell-based, Saccharomyces cerevisiae; settings: compound alone
[7] = test system: DH5α E. coli; format: cell-based, Escherichia coli; settings: compound alone
Excerpt: as §4, §5

[8] = test system: K-12 E. coli; assay: MIC, K-12 E. coli; format: cell-based, Escherichia coli; settings: compound alone
Excerpt: as §5

[9] = test system: tetracycline resistant E. coli (tetA efflux pump); assay: microbe, parasite or virus in culture; format: cell-based, Escherichia coli; settings: compound alone; for MIC: tetracycline resistant E. coli
Excerpt: as §4
Minimal Inhibitory Concentration (MIC) Procedure. […] Streak the E. coli (DH5α or K-12 MG1655) strain on L.B agar plates. […] Prepare initial concentration of all the compounds required. • 5. […] Vortex each test tube for 2-3 seconds. • 9. […] Vortex each test tube for 2-3 seconds. • 11. […]
as §3

[10] = test system: tetracycline resistant E. coli (tetA efflux pump); format: cell-based, Escherichia coli
Procedure: as §1

[11] = test system: K-12 E. coli; assay: Combination of amphiphile and antibiotic against K-12 E. coli; format: cell-based, Escherichia coli
Procedure: (§6) Steps 1-7, described in the MIC procedure, shown in Example 2, were followed. • 2. While the E. coli grew, the appropriate volume of compound was added to each test tube. • 3. Antibiotics were added at the required volume of solution to obtain the desired concentration in each test tube. […] Each test tube was vortexed for 2-3 seconds. • 5. Steps 10-12 from the MIC procedure, shown in Example 2, were then executed.

[12] = test system: HEK-293 cells; assay: Toxicity of lariat ethers to HEK-293 cells (MTT assay); format: cell-based
Excerpt: The error bars represent the standard error. […]

[13] = test system: DH5α E. coli; assay: Combination of lariat ether and antibiotic against DH5α E. coli; format: cell-based, Escherichia coli;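 further: E. coli grown in test-tube liquid culture at a fixed total volume of 2 mL, with the amphiphile and the antibiotic both added to each tube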
Procedure: The volume of water added was between 12 to 0.5 μL. The volume of water added was not constant but the volume of media was changed so that the total volume was kept constant at 2 mL.
as §6

[14] = Rifampicin, amphiphile used 6 μM
[15] = rifampicin, amphiphile used 8 μM, 0.4 vol-% DMSO
[16] = rifampicin, amphiphile used 16 μM, 0.4 vol-% DMSO
[17] = rifampicin, amphiphile used 18 μM, 0.4 vol-% DMSO
[18] = rifampicin, amphiphile used […] μM, 0.4 vol-% DMSO
[19] = tetracycline, amphiphile used 4 μM, 0.4 vol-% DMSO
[20] = tetracycline, amphiphile used 16 μM, 0.4 vol-% DMSO
[21] = tetracycline, amphiphile used 18 μM, 0.4 vol-% DMSO
[22] = tetracycline, amphiphile used […] μM, 0.4 vol-% DMSO
[23] = Tetracycline, amphiphile used 6 μM
[24] = Tetracycline, amphiphile used 16 μM

## O=C(O)c1cn(C2CC2)c2cc(N3CCNCC3)c(F)cc2c1=O [Ciprofloxacin]
[1]
  recovery of ciprofloxacin activity by hydraphiles: 10 fold
[2]
  susceptibility of S. aureus 1199B: resistant
[3]
  MIC: 700 µM (≈ 232 µg/mL)

## N,N′-di-n-tetradecyl-4,13-diaza-18-crown-6 [C14 lariat ether]
[4]
  MIC (μM) E. coli: >300 µM
[5]
  MIC (μM) B. subtilis: >300 µM
[6]
  MIC (μM) S. cerevisiae: >300 µM

## CCn1cc(C(=O)O)c(=O)c2cc(F)c(N3CCNCC3)cc21 [norfloxacin]
[2]
  susceptibility of S. aureus 1199B: resistant

## CO[C@H]1/C=C/O[C@@]2(C)Oc3c(C)c(O)c4c(O)c(c(/C=N/N5CCN(C)CC5)c(O)c4c3C2=O)NC(=O)/C(C)=C\C=C\[C@H](C)[C@H](O)[C@@H](C)[C@@H](O)[C@@H](C)[C@H](OC(C)=O)[C@@H]1C [rifampicin, reference compound]
[7]
  MIC: 60 µM (≈ 49.4 µg/mL)
[8]; Escherichia coli
  MIC: 20 µM (≈ 16.5 µg/mL)

## CN(C)[C@@H]1C(O)=C(C(N)=O)C(=O)[C@@]2(O)C(O)=C3C(=O)c4c(O)cccc4[C@@](C)(O)[C@H]3C[C@@H]12 [tetracycline]
[1]
  recovery of tetracycline activity by hydraphiles: 40 fold
[8]; Escherichia coli
  MIC: 6 µM (≈ 2.67 µg/mL)
[9]; Escherichia coli
  MIC: ~900 µM (≈ 400 µg/mL)
[9]; microtiter, inhibition greater than 80% considered as the MIC
  Minimal Inhibitory Concentrations (MIC) E. coli (Tet^R): 900 µM and 900 ± 100 µM
[9]
  MIC: 900 ± 50 µM and 900 µM
[3]
  MIC: 1000 µM (≈ 444 µg/mL)
[3]; compound alone, inhibition greater than 80% considered as the MIC
  Minimal Inhibitory Concentrations (MIC) K. pneumoniae: 1000 ± 100 µM

## N,N′-di-n-decyl-4,13-diaza-18-crown-6 [C10 lariat ether]
[10]; amphiphile used 6 μM
  Antibiotic Used (μM) in combination: 225 µM
  Fold Enhancement: 4 fold
[10]; amphiphile used 9 μM
  Antibiotic Used (μM) in combination: 56 µM
  Fold Enhancement: 16 fold
[11]; [14]
  Antibiotic Used (μM) in combination: 5 µM
[7]
  MIC: 12 µM
[12]
  toxicity to HEK-293 compared among lariat ethers: highest toxicity
[4]
  MIC (μM) E. coli: 11 µM
[8]
  MIC: 12 µM
[9]
  MIC: 16 µM
[5]
  MIC (μM) B. subtilis: 2.8 µM
[6]
  MIC (μM) S. cerevisiae: 2.8 µM

## c1ccc(CN2CCOCCOCCN(Cc3ccccc3)CCOCCOCC2)cc1 [Dibenzyl diaza crown, N,N′-Dibenzyl-4,13-diaza-18-crown-6, reference compound]
[10]; amphiphile/control 128 μM
  Fold Enhancement: 1-fold
  [Tetracycline] μM in combination: 900 µM
[10]; amphiphile/control 128 μM, listed as Dibenzyl di-aza-crown
  Fold Enhancement: did not show any recovery

## CCCCCCCCCCCN1CCOCCOCCN(CCCCCCCCCCC)CCOCCOCC1 [C11 lariat ether, N,N′-bis(n-undecyl)-4,13-diaza-18-crown-6]
[10]; amphiphile used 8 μM
  Antibiotic Used (μM) in combination: 175 µM
  Fold Enhancement: 5 fold
[10]; amphiphile used 16 μM
  Antibiotic Used (μM) in combination: 87 µM
  Fold Enhancement: 10 fold
[10]; amphiphile used 18 μM
  Antibiotic Used (μM) in combination: 87 µM
  Fold Enhancement: 10 fold
[10]; amphiphile used […] μM
  Antibiotic Used (μM) in combination: 87 µM
  Fold Enhancement: 10 fold
[13]; [15]
  Antibiotic Used (μM) in combination: 15 µM
  Fold Enhancement: 4 fold
[13]; [16]
  Antibiotic Used (μM) in combination: 6 µM
  Fold Enhancement: 10 fold
[13]; [17]
  Antibiotic Used (μM) in combination: 3 µM
  Fold Enhancement: 20 fold
[13]; [18]
  Antibiotic Used (μM) in combination: 6 µM
  Fold Enhancement: 10 fold
[13]; [19]
  Antibiotic Used (μM) in combination: 3 µM
  Fold Enhancement: 4 fold
[13]; [20]
  Antibiotic Used (μM) in combination: 0.25 µM
  Fold Enhancement: 48 fold
[13]; [21]
  Antibiotic Used (μM) in combination: 1.5 µM
  Fold Enhancement: 8 fold
[13]; [22]
  Antibiotic Used (μM) in combination: 1 µM
  Fold Enhancement: 12 fold
[11]; [14]
  Antibiotic Used (μM) in combination: 10 µM
  Fold Enhancement: 2 fold
[11]; [23]
  Antibiotic Used (μM) in combination: 2.5 µM
  Fold Enhancement: ~2 fold
[7]
  MIC: 24 µM (≈ 13.7 µg/mL)
[12]
  LD50 to HEK-293: 22 µM
[4]
  MIC (μM) E. coli: 24 µM (≈ 13.7 µg/mL)
[8]
  MIC: 24 µM (≈ 13.7 µg/mL)
[9]
  MIC: 24 µM (≈ 13.7 µg/mL)
[5]
  MIC (μM) B. subtilis: 9 µM (≈ 5.14 µg/mL)
[6]
  MIC (μM) S. cerevisiae: 1.5 µM (≈ 0.856 µg/mL)

## Gramicidin D [reference compound]
[10]; amphiphile/control 20 μM
  [Tetracycline] μM in combination: 900 ± 100 µM

## N,N′-di-n-dodecyl-4,13-diaza-18-crown-6 [C12 lariat ether]
[10]; amphiphile used 192 μM
  Antibiotic Used (μM) in combination: 450 µM
  Fold Enhancement: 2 fold
[11]; [24]
  Antibiotic Used (μM) in combination: 3 µM
  Fold Enhancement: 2 fold
[4]
  MIC (μM) E. coli: >300 µM
[8]
  MIC: >512 µM
[5]
  MIC (μM) B. subtilis: 2.5 µM
[6]
  MIC (μM) S. cerevisiae: 2.5 µM

## N,N′-di-n-octyl-4,13-diaza-18-crown-6 [C8 lariat ether]
[10]; amphiphile used 40 μM
  Antibiotic Used (μM) in combination: 233 µM
  Fold Enhancement: 4 fold
[10]; amphiphile used 60 μM
  Antibiotic Used (μM) in combination: 175 µM
  Fold Enhancement: 5 fold
[10]; amphiphile used 80 μM
  Antibiotic Used (μM) in combination: 87 µM
  Fold Enhancement: 10 fold
[13]; rifampicin, amphiphile used 40 μM, 0.4 vol-% DMSO
  Antibiotic Used (μM) in combination: 3 ± 1 µM
[13]; rifampicin, amphiphile used 60 μM, 0.4 vol-% DMSO
  Antibiotic Used (μM) in combination: 3 ± 1 µM
[13]; rifampicin, amphiphile used 80 μM, 0.4 vol-% DMSO
  Antibiotic Used (μM) in combination: 3 ± 1 µM
[13]; tetracycline, amphiphile used 20 μM, 0.4 vol-% DMSO
  Antibiotic Used (μM) in combination: 12 µM
[13]; tetracycline, amphiphile used 30 μM, ≤0.6 vol-% DMSO
  Antibiotic Used (μM) in combination: 3 µM
[13]; tetracycline, amphiphile used 40 μM, 0.4 vol-% DMSO
  Antibiotic Used (μM) in combination: 2 µM
[13]; tetracycline, amphiphile used 60 μM, 0.4 vol-% DMSO
  Antibiotic Used (μM) in combination: 2 µM
[13]; tetracycline, amphiphile used 80 μM, 0.4 vol-% DMSO
  Antibiotic Used (μM) in combination: 0.5 µM
[13]; tetracycline, amphiphile used 100 μM, 0.4 vol-% DMSO
  Antibiotic Used (μM) in combination: 0.25 µM
[11]; Rifampicin, amphiphile used 32 μM
  Antibiotic Used (μM) in combination: 10 µM
[11]; Rifampicin, amphiphile used […] μM
  Antibiotic Used (μM) in combination: 5 µM
[11]; Tetracycline, amphiphile used […] μM
  Antibiotic Used (μM) in combination: 2.5 µM
[7]
  MIC: > 240 µM
[7]; listed as C8 Lariat
  MIC: 120 µM
[7]; listed as n-C8
  MIC: >120 µM
[12]
  LD50 to HEK-293: 33 µM
[4]
  MIC (μM) E. coli: 120 µM
[8]
  MIC: 300 µM
[9]
  MIC: 120 µM
[5]
  MIC (μM) B. subtilis: 105 µM
[6]
  MIC (μM) S. cerevisiae: 25 µM
